Patent US8193169B2, “(20R)-2α-methyl-19,26,2-trinor-vitamin D analogs” (Wisconsin Alumni Research Foundation, priority 2006, dated 2012)

Key:
[1] = Bone calcium mobilization (serum calcium) in vitamin D-deficient rats; format: in vivo, Sprague-Dawley rats; conditions: vitamin D-deficient rats on 0.02% Ca diet, FIG. 4
Procedure: (§1) Male, weanling Sprague-Dawley rats were placed on Diet 11 (0.47% Ca) diet+AEK oil for one week followed by Diet 11 (0.02% Ca)+AEK oil for 3 weeks. The rats were then switched to a diet containing 0.47% Ca for one week followed by two weeks on a diet containing 0.02% Ca. Dose administration began during the last week on 0.02% calcium diet. Four consecutive ip doses were given approximately 24 hours apart. Twenty-four hours after the last dose, blood was collected from the severed neck and the concentration of serum calcium determined as a measure of bone calcium mobilization. The first 10 cm of the intestine was also collected for intestinal calcium transport analysis using the everted gut sac method.

[2] = Intestinal calcium transport, everted gut sac method, in vitamin D-deficient rats; format: in vivo, Sprague-Dawley rats; conditions: 35,100 pmol/day ip for 4 consecutive days, FIG. 5
Procedure: as §1

[3] = target: T1, full-length recombinant rat vitamin D receptor (Rattus norvegicus, UniProt P13053); test: biochemical
T1 sequence (P13053 1-423): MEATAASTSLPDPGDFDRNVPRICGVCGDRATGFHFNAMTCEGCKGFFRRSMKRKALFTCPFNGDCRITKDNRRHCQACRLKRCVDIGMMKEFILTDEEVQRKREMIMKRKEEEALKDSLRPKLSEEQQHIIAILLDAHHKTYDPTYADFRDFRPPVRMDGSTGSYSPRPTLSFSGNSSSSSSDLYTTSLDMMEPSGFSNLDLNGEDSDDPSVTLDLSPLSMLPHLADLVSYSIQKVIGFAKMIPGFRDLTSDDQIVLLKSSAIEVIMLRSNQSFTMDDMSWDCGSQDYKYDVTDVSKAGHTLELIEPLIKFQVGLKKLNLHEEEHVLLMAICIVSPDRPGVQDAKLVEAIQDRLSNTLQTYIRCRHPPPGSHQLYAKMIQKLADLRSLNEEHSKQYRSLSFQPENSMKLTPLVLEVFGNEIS

[4] = target: T1, full-length recombinant rat vitamin D receptor; conditions: compared to 1,25(OH)2D3
HL-60 cells = test: HL-60 cell differentiation (nitro blue tetrazolium reduction); format: cell-based, human; conditions: for EC50: HL-60 cells, differentiation into monocytes, FIG. 2
Procedure: The study drugs were dissolved in ethanol and the concentrations determined using UV spectrophotometry. Serial dilutions were prepared so that a range of drug concentrations could be tested without changing the final concentration of ethanol (≦0.2%) present in the cell cultures.
Human promyelocytic leukemia (HL60) cells were grown in RPMI-1640 medium containing 10% fetal bovine serum. The cells were incubated at 37° C. in the presence of 5% CO2.
HL60 cells were plated at 1.2×10^5 cells/ml. Eighteen hours after plating, cells in duplicate were treated with drug. Four days later, the cells were harvested and a nitro blue tetrazolium reduction assay was performed (Collins et al., 1979; J. Exp. Med. 149:969-974). The percentage of differentiated cells was determined by counting a total of 200 cells and recording the number that contained intracellular black-blue formazan deposits. Verification of differentiation to monocytic cells was determined by measuring phagocytic activity (data not shown).

[5] = test system: 24-hydroxylase (24Ohase) gene promoter; test: In vitro transcription assay, luciferase reporter in ROS 17/2.8 (bone) cells; format: cell-based; conditions: for EC50: ROS 17/2.8 cells, 24-hydroxylase promoter-luciferase, FIG. 3, read-out: EC50, transcriptional activity in bone cells
Procedure: Transcription activity was measured in ROS 17/2.8 (bone) cells that were stably transfected with a 24-hydroxylase (24Ohase) gene promoter upstream of a luciferase reporter gene (Arbour et al., 1998). Cells were given a range of doses. Sixteen hours after dosing the cells were harvested and luciferase activities were measured using a luminometer.
RLU=relative luciferase units.

[6] = compared to 1α,25-dihydroxyvitamin D3

Row | Ki [3] | VDR binding potency relative to 1,25(OH)2D3 (times less potent) [4] | EC50 (HL-60 cells; Homo sapiens) | Structure (SMILES) | Bone calcium mobilization activity (serum calcium) ([1]; 35,100 pmol/day ip for 4 consecutive days) | Intestinal calcium transport activity [2] | HL-60 cell differentiation activity relative to 1α,25-dihydroxyvitamin D3 (times less activity) (HL-60 cells; [6]) | EC50 [5] | Transcriptional activity in bone cells relative to 1α,25-dihydroxyvitamin D3 (times less) [5, 6] | Bone calcium mobilization activity (serum calcium) ([1]; 780 pmol/day) | Serum calcium levels ([1]; all dosages) | EC50 (HL-60 cells)
1 | 1 nM | about 10 times | 30 nM | CC(CCCCO)C1CCC2C(=CC=C3CC(O)C(C)C(O)C3)CCCC21C [B-9, (20R)-2α-methyl-19,26,27-trinor-1α,25-dihydroxyvitamin D3] | did not result in any mobilization of bone calcium | did not result in any activity | ~10 times | 10 nM | about 30 times |  |  | 
2 |  |  |  | C=C1/C(=C\C=C2/CCC[C@]3(C)[C@@H]([C@H](C)CCCC(C)(C)O)CC[C@@H]23)C[C@@H](O)C[C@@H]1O [1,25(OH)2D3, 1α,25-dihydroxyvitamin D3, reference compound] |  |  |  | 0.3 nM |  | significant activity | increased serum calcium levels at all dosages | 2 nM
